The source made the active and inactive calls.

Test [1] is described as follows: C. albicans growth with fluconazole, confirmation, fluorescence, retest (AID 2467). The test is classed as functional, cell-based.
Test [2] addresses T1, Ubiquitin-conjugating enzyme E2 N (Homo sapiens, UniProt P61088).
T1 sequence (P61088 whole entry): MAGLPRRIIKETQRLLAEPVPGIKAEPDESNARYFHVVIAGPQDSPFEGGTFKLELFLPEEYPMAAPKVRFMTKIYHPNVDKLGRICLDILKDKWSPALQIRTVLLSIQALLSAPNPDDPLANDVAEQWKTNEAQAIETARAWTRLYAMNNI
The test is classed as functional.

Test [3] in a line: NIH-3T3 fibroblast cytotoxicity, dose response, cytotoxicity control, cell-based, fluorescence, Alamar Blue, secondary assay (AID 2327).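 Also: NIH-3T3 mouse fibroblasts cultured with fluconazole at 8 µg/mL.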 The test is classed as functional.
The target in test [4] is T2, Small ubiquitin-related modifier 1 (Homo sapiens, UniProt P63165). Put plainly: inhibitors of SUMO1 partner interactions, dose response, biochemical, FRET (AID 624383). The test is classed as functional. As to conditions: read-out: IC50_Mean.
Test [5] has as its target T3, Rac GTPase-activating protein 1 (Homo sapiens, UniProt Q9H0H5).
T3 sequence (Q9H0H5 whole entry): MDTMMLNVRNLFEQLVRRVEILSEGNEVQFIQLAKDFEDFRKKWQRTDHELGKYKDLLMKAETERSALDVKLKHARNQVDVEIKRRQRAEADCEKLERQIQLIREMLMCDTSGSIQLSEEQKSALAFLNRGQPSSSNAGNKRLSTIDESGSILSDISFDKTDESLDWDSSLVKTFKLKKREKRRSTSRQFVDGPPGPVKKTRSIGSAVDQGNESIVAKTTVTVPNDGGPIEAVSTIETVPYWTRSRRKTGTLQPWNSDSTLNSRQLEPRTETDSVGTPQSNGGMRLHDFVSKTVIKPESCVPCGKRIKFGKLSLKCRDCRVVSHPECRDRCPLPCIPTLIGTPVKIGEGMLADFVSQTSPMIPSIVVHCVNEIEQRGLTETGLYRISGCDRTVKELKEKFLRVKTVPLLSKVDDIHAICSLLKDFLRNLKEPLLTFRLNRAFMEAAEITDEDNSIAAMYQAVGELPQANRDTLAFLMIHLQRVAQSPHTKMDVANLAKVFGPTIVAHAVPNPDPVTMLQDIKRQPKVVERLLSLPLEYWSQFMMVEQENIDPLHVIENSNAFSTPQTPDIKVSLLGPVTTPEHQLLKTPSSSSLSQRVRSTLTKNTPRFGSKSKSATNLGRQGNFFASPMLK
In words: MgcRacGAP GTPase-activating activity inhibitors, confirmation, biochemical, ADP Hunter fluorescence, primary and confirmatory (AID 624330). Format: functional.

Test [6] addresses T1, Ubiquitin-conjugating enzyme E2 N. Format: functional. This is another data set of the same source.
Another test addresses T4, Bcl-2-related protein A1 (Mus musculus, UniProt Q07440).
T4 sequence (Q07440 whole entry): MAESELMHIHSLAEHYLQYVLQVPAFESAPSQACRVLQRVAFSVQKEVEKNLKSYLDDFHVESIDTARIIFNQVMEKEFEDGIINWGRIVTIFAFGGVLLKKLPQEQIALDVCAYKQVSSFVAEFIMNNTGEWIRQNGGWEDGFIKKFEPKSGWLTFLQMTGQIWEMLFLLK
Format: functional.

In test [7] the target is T5, DNA repair and recombination protein RAD54-like (Homo sapiens, UniProt Q92698).
T5 sequence (Q92698 whole entry): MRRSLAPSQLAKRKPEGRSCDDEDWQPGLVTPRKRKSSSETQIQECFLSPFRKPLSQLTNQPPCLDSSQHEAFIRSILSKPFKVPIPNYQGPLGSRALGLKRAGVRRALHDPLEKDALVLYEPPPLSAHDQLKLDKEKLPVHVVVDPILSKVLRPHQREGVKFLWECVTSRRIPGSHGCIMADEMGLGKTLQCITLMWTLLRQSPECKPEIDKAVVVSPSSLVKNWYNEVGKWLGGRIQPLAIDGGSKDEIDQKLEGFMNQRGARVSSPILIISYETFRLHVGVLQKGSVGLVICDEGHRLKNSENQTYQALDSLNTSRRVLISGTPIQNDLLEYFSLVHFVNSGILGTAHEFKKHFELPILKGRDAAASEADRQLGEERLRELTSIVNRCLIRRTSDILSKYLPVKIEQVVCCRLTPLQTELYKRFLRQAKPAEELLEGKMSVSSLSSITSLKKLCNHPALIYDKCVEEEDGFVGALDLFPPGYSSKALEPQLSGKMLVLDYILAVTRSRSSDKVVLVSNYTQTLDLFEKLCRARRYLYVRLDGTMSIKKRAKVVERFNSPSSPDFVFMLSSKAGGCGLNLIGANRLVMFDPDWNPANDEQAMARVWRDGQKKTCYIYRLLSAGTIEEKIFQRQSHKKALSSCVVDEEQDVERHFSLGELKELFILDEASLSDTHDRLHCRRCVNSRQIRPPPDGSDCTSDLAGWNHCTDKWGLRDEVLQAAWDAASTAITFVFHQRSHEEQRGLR
In words: inhibitors of human RAD54 branch migration, confirmation, biochemical, fluorescence, cherry-picked samples, dose series (AID 651657). Format: functional.

Test [8] deals with T2, Small ubiquitin-related modifier 1. In words: inhibitors of SUMO1 peptide binding, dose response, biochemical, fluorescence polarization, uHTS hits (AID 624382). Format: functional. As to conditions: read-out: IC50_Mean. For orientation: In fluorescence polarisation assays a small probe gives low polarisation when free and higher when bound to something large.
In test [9] the target is T6, Sentrin-specific protease 8 (Homo sapiens, UniProt Q96LD8).
T6 sequence (Q96LD8 whole entry): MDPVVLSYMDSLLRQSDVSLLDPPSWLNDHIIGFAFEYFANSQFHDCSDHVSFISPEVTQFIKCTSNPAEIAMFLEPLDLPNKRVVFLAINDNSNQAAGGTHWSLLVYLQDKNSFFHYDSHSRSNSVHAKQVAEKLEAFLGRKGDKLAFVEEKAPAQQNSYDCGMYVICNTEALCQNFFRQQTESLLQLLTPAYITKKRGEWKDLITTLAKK
Format: functional.

The target of test [10] is T6, Sentrin-specific protease 8. Format: functional. This is another data set of the same source.
Test [11] has as its target 26S proteasome non-ATPase regulatory subunit 14 (Homo sapiens, UniProt O00487). In words: inhibition of proteasome subunit RPN11 – biochemical, fluorescence polarization, uHTS hits, confirmation (AID 602368). The test is classed as functional.
Another test has as its target Prothrombin (Bos taurus, UniProt P00735). Put plainly: thrombin inhibition, dose response, biochemical, fluorescence polarization, uHTS hits (AID 602369). Format: functional.
Test [12] concerns the target 72 kDa type IV collagenase (Homo sapiens, UniProt P08253). Put plainly: Dose Response validation of uHTS RPN11 inhibitor hits using a MMP-2 Fluorescence assay. Format: functional.
A further test concerns the target T7, Aminopeptidase N (Plasmodium falciparum FcB1/Columbia, UniProt O96935).
T7 sequence (O96935 whole entry): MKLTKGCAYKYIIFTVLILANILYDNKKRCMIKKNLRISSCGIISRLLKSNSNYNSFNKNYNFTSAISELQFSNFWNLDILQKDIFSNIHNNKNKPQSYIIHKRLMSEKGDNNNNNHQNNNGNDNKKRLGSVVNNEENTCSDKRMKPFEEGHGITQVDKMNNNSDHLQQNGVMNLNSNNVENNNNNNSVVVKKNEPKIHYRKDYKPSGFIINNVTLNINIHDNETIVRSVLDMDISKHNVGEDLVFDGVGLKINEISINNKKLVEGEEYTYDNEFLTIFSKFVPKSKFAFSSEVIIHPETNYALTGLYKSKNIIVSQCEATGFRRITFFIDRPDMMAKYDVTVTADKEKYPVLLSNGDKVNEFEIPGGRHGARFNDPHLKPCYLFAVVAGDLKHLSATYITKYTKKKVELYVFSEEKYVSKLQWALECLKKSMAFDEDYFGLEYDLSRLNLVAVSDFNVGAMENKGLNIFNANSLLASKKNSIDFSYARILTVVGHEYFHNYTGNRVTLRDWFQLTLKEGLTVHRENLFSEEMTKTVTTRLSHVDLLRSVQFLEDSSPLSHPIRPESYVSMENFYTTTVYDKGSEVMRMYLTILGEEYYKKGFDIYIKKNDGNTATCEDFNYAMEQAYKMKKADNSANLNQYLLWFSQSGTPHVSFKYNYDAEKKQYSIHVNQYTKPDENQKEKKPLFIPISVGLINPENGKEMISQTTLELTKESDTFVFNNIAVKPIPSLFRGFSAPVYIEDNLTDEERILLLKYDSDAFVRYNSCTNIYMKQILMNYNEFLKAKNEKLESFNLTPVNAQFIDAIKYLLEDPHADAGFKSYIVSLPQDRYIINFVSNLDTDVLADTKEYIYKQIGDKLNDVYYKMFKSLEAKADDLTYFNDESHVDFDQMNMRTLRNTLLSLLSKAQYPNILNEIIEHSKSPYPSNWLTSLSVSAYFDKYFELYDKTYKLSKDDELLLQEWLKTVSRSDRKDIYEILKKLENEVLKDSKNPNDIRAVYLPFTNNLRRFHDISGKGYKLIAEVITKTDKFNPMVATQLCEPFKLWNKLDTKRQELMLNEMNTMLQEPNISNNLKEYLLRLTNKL
Put plainly: P. falciparum M1AAP inhibitors, biochemical, fluorogenic H-Leu-NHMec substrate, 1536-well (AID 1445). Further details: species or system Plasmodium falciparum 3D7, 3D7.

Test [13] has as its target T8, Carboxy-terminal domain RNA polymerase II polypeptide A small phosphatase 1 (Homo sapiens, UniProt Q9GZU7).
T8 sequence (Q9GZU7 whole entry): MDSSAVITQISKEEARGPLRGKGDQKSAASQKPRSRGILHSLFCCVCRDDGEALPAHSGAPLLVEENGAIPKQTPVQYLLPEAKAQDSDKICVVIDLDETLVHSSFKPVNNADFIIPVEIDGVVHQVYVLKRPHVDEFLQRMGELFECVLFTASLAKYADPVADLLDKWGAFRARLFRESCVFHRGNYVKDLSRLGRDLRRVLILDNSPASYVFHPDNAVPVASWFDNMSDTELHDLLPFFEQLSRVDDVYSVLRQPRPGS
Put plainly: inhibitors of CTDSP1, concentration-response testing, biochemical assay, absorbance-based, actives from ultra-high-throughput screening (AID 540297). The test is classed as functional.

The next test relates to SN12K1. Put plainly: cells. Format: functional. As to conditions: Homo sapiens.
The test system of another test is P388/ADR. Put plainly: cells. To be noted: Mus musculus. Format: functional.
Test [14] is described as follows: miR-122 activators in hepatoma reporter cells, dose response, cell-based, Huh7 psiCHECK-miR122, Renilla luciferase, cherry-picked (AID 651956).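 Also: huh7 hepatoma cells stably carrying a psiCHECK-2 miR-122 sensor plasmid; renilla luciferase signal reporting endogenous miR-122 activity after 48 h compound exposure.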 Format: functional.

T2 sequence (P63165 whole entry): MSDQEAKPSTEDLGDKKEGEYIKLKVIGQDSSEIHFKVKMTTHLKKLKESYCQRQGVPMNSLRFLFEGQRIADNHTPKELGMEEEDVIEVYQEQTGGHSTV
Chain of 72 kDa type IV collagenase (P08253 whole entry): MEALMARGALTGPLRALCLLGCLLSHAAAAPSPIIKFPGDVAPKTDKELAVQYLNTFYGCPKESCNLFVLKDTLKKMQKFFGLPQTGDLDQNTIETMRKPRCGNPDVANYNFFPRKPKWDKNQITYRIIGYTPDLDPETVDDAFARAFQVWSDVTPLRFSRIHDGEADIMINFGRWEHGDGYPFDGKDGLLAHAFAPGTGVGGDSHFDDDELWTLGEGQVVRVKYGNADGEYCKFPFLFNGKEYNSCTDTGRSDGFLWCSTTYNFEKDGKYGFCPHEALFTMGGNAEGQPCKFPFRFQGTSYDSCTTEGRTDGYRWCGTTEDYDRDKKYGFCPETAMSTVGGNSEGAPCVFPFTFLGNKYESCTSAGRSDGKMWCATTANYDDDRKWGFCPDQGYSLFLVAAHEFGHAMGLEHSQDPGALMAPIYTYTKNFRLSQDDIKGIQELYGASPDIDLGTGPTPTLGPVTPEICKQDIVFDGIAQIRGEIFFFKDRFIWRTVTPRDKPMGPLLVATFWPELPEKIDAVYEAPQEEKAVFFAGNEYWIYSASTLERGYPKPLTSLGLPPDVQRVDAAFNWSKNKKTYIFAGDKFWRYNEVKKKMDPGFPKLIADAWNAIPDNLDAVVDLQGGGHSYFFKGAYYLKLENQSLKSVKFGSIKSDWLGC
Chain of 26S proteasome non-ATPase regulatory subunit 14 (O00487 whole entry): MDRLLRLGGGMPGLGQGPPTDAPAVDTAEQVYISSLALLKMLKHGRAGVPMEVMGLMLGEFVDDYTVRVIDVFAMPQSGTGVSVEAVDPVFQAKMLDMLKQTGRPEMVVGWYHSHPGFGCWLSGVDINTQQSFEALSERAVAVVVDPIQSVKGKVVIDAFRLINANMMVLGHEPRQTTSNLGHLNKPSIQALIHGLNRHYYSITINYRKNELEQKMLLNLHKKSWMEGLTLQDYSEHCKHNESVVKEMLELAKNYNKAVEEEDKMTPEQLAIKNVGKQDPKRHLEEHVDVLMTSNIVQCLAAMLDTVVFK

In general, EC50 refers to the concentration needed to bring the measured effect to its halfway point. The term AC50 denotes the concentration at which the activity in the assay is half-maximal. On to `O=C(Nc1ccc(C2=NCCN2)cc1)c1ccc(C(=O)Nc2ccc(C3=NCCN3)cc2)c(Cl)c1`, for which the EC50 in [1] was 0.157 µM (active); in test [3], > 160 µM (inactive). Moreover, the IC50 in test [2] was 3.32 µM (active); in [4], 4.61 µM (active); in test [5], 35.8 µM (active); in test [6], 1.7 µM (active); at Bcl-2-related protein A1, 9.71 µM (active); in [8] it was > 66.6 µM (inactive). The half-maximal activity concentration (AC50) in test [7] is 13.8 µM (active).
Regarding `COC/C=C/C1=CC2=CC(=O)C(C)(OC(=O)c3cnc4ccccc4n3)C(=O)C2=CN1CCCOC(C)C` (centres undefined), the IC50 in test [9] was 19.9 µM (active); in test [10], 8.09 µM (active).
For `Cn1cncc1C#Cc1ccc2cc(C3(O)CCCCC3)oc(=O)c2c1`, the figures for the IC50 (in [11]; at Prothrombin; in test [12]) were 32.5 µM (active), 53.3 µM (active) and > 100 µM (inactive), respectively.
As for `COc1ccccc1N1C(=N)S/C(=C\c2ccc(-c3ccccc3C(=O)O)o2)C1=O`, the IC50 in test [11] is 24.8 µM (active); at Prothrombin, 68.5 µM (active); at Aminopeptidase N, 21.7 µM (active); in [13] it was 8.51 µM (active); in test [12], > 100 µM (inactive).
On to `COc1ccc(-n2c(SCC(=O)Nc3cccc(S(N)(=O)=O)c3)nc3ccccc3c2=O)cc1OC`, for which the IC50 is 4.19 µM (active) in test [4] and > 66.6 µM (inactive) in test [8].
As to `O=C1NC(=O)C(Nc2ccccc2)C(=O)N1`, the IC50 in [9] was 22.5 µM (active); in test [10], 28.5 µM (active).
By GI50 is commonly meant the concentration giving 50% growth inhibition. For `C/C(=C/c1c(C)[nH]c(=O)[nH]c1=O)C(=O)O`, the values for the GI50 in the test with SN12K1 and in the test on P388/ADR were > 1370 µM (inactive) and 813 µM (inactive), respectively.
For `CCC(=O)N(C)C[C@@H]1[C@H](c2ccc(-c3ccccc3F)cc2)[C@H](CO)N1C(C)=O`, the AC50 in [14] was 49.5 µM (active).
Turning to `CN1C(=O)c2cc(NC(=O)c3cccc(F)c3)ccc2OC[C@@H]2O[C@H](CC(=O)O)CC[C@H]21`, in [14], the AC50 was 51.2 µM (active).
Take `CCCCCCC(=O)Nc1nc(C)c(-c2csc(Nc3cc(OC)ccc3OC)n2)s1`: the values for the IC50 in test [4] and in test [8] were 11.2 µM (active) and > 66.6 µM (inactive), respectively.

The values above are taken from ChEMBL document CHEMBL1201862, “PubChem BioAssay data set” (2004).
